What all share (type): binding
Experiment [1] deals with T1, TYK2 (Homo sapiens, UniProt P29597).
T1 construct: endogenous in cells; host or cells: Molt4 (ATCC CRL-1582) and Ramos (ATCC CRL-1596) cells; mixed lysate 1:2
The experiment is described as follows: Kinobeads assay with immunodetection, TYK2. Conditions: for IC50: Kinobeads assay, mixed Molt4/Ramos lysate, read-out: Inhibition values (IC50) Tyk2. As for the experimental part: (§1) Determination of the Effect of the Compounds According to the Invention on Janus Kinases (JAK Family) in Kinobeads™ Assays with Immunodetection of Kinases
(§2) The compounds of the present invention as described in the previous examples were tested in a Kinobeads™ assay as described for ZAP-70 (WO-A 2007/137867). Briefly, test compounds (at various concentrations) and the affinity matrix with the immobilized aminopyrido-pyrimidine ligand 24 were added to cell lysate aliquots and allowed to bind to the proteins in the lysate sample. After the incubation time the beads with captured proteins were separated from the lysate. Bound proteins were then eluted and the presence of JAK1, JAK2, JAK3 and TYK2 was detected and quantified using specific antibodies in a dot blot procedure and the Odyssey infrared detection system. Dose response curves for individual kinases were generated and IC50 values calculated. Kinobeads™ assays for ZAP-70 (WO-A 2007/137867) and for kinase selectivity profiling (WO-A 2006/134056) have been previously described.
(§3) The affinity matrix was washed two times with 15 mL of 1×DP buffer containing 0.2% NP40 (IGEPAL® CA-630, Sigma, #13021) and then resuspended in 1×DP buffer containing 0.2% NP40 (3% beads slurry).
(§4) 5×DP buffer: 250 mM Tris-HCl pH 7.4, 25% Glycerol, 7.5 mM MgCl2, 750 mM NaCl, 5 mM Na3VO4; filter the 5×DP buffer through a 0.22 μm filter and store in aliquots at −80° C. The 5×DP buffer is diluted with H2O to 1×DP buffer containing 1 mM DTT and 25 mM NaF.
(§5) Stock solutions of test compounds were prepared in DMSO. In a 96 well plate 30 μL solution of diluted test compounds at 5 mM in DMSO were prepared. Starting with this solution a 1:3 dilution series (9 steps) was prepared. For control experiments (no test compound) a buffer containing 2% DMSO was used.
(§6) Molt4 cells (ATCC catalogue number CRL-1582) and Ramos cells (ATCC catalogue number CRL-1596) were grown in 1 L Spinner flasks (Integra Biosciences, #182101) in suspension in RPMI 1640 medium (Invitrogen, #21875-034) supplemented with 10% Fetal Bovine Serum (Invitrogen) at a density between 0.15×10^6 and 1.2×10^6 cells/mL. Cells were harvested by centrifugation, washed once with 1×PBS buffer (Invitrogen, #14190-094) and cell pellets were frozen in liquid nitrogen and subsequently stored at −80° C. Cells were homogenized in a Potter S homogenizer in lysis buffer: 50 mM Tris-HCl, 0.8% NP40, 5% glycerol, 150 mM NaCl, 1.5 mM MgCl2, 25 mM NaF, 1 mM sodium vanadate, 1 mM DTT, pH 7.5. One complete EDTA-free tablet (protease inhibitor cocktail, Roche Diagnostics, 1873580) per 25 ml, buffer was added. The material was dounced 10 times using a mechanized POTTER S, transferred to 50 mL falcon tubes, incubated for 30 minutes on ice and spun down for 10 minutes at 20,000 g at 4° C. (10,000 rpm in Sorvall SLA600, precooled). The supernatant was transferred to an ultracentrifuge (UZ)-polycarbonate tube (Beckmann, 355654) and spun for 1 hour at 100.000 g at 4° C. (33.500 rpm in Ti50.2, precooled). The supernatant was transferred again to a fresh 50 mL falcon tube, the protein concentration was determined by a Bradford assay (BioRad) and samples containing 50 mg of protein per aliquot were prepared. The samples were immediately used for experiments or frozen in liquid nitrogen and stored frozen at −80° C.
(§7) Cell lysate (approximately 50 mg protein per plate) was thawed in a water bath at room temperature and then stored on ice. To the thawed cell lysate 1×DP 0.8% NP40 buffer containing protease inhibitors (1 tablet for 25 mL buffer; EDTA-free protease inhibitor cocktail; Roche Diagnostics 1873580) was added in order to reach a final protein concentration of 10 mg/mL total protein. The diluted cell lysate was stored on ice. Mixed Molt4/Ramos lysate was prepared by combining one volume of Molt4 lysate and two volumes of Ramos lysate (ratio 1:2). […]

Experiment [2] deals with T2, JAK1 (Homo sapiens, UniProt P23458).
T2 construct: endogenous in cells; host or cells: Molt4 (ATCC CRL-1582) and Ramos (ATCC CRL-1596) cells; mixed lysate 1:2
The experiment is described as follows: Kinobeads assay with immunodetection, JAK1. The settings on record: for IC50: Kinobeads assay, mixed Molt4/Ramos lysate, read-out: Inhibition values (IC50) JAK1. The method, then:
as §1, §2, §3, §4, §5, §6, §7

Experiment [3] has as its target T3, JAK3 (Homo sapiens, UniProt P52333).
T3 construct: endogenous in cells; host or cells: Molt4 (ATCC CRL-1582) and Ramos (ATCC CRL-1596) cells; mixed lysate 1:2
T3 sequence (P52333 1-1124): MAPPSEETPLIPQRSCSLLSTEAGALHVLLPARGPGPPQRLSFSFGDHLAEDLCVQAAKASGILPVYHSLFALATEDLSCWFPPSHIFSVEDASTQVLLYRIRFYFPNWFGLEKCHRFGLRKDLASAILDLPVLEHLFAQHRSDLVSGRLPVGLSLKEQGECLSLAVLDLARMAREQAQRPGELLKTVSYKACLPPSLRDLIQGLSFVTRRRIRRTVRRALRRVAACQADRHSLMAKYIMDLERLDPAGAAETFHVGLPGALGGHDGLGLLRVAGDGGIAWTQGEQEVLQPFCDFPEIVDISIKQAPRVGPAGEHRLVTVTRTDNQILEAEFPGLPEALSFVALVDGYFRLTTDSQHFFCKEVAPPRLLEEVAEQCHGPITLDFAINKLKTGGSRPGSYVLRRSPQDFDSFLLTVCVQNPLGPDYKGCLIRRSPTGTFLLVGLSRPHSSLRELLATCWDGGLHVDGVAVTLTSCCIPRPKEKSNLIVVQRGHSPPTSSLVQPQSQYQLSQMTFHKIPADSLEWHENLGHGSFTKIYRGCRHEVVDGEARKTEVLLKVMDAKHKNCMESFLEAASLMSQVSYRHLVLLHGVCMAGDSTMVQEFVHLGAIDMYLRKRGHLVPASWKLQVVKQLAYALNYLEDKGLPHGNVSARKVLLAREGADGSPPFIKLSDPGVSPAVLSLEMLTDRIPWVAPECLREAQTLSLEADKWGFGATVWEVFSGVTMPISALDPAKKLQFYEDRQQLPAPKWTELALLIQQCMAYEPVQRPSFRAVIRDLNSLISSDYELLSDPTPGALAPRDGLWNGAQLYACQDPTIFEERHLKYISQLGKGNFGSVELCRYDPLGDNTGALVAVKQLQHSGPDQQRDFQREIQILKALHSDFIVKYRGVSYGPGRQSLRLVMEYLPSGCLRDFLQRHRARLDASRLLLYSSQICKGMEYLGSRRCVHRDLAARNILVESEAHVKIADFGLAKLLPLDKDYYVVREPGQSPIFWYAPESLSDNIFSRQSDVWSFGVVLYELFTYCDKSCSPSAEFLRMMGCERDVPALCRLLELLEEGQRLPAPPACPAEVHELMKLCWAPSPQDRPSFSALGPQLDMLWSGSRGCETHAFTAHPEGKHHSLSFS
Kind of experiment: Kinobeads assay with immunodetection, JAK3. The settings on record: for IC50: Kinobeads assay, mixed Molt4/Ramos lysate, read-out: Inhibition values (IC50) JAK3. The method, then:
as §1, §2, §3, §4, §5, §6, §7

In experiment [4] the target is T4, JAK2 (Homo sapiens, UniProt O60674).
T4 construct: endogenous in cells; host or cells: Molt4 (ATCC CRL-1582) and Ramos (ATCC CRL-1596) cells; mixed lysate 1:2
The experiment is described as follows: Kinobeads assay with immunodetection, JAK2. The settings on record: mixed Molt4/Ramos lysate, read-out: Inhibition values (IC50) JAK2. As for the experimental part:
as §1, §2, §3, §4, §5, §6, §7

Each structure is given as a SMILES string. Where only a bound is given, the exact number is not on record here.

T1 sequence (P29597 whole entry): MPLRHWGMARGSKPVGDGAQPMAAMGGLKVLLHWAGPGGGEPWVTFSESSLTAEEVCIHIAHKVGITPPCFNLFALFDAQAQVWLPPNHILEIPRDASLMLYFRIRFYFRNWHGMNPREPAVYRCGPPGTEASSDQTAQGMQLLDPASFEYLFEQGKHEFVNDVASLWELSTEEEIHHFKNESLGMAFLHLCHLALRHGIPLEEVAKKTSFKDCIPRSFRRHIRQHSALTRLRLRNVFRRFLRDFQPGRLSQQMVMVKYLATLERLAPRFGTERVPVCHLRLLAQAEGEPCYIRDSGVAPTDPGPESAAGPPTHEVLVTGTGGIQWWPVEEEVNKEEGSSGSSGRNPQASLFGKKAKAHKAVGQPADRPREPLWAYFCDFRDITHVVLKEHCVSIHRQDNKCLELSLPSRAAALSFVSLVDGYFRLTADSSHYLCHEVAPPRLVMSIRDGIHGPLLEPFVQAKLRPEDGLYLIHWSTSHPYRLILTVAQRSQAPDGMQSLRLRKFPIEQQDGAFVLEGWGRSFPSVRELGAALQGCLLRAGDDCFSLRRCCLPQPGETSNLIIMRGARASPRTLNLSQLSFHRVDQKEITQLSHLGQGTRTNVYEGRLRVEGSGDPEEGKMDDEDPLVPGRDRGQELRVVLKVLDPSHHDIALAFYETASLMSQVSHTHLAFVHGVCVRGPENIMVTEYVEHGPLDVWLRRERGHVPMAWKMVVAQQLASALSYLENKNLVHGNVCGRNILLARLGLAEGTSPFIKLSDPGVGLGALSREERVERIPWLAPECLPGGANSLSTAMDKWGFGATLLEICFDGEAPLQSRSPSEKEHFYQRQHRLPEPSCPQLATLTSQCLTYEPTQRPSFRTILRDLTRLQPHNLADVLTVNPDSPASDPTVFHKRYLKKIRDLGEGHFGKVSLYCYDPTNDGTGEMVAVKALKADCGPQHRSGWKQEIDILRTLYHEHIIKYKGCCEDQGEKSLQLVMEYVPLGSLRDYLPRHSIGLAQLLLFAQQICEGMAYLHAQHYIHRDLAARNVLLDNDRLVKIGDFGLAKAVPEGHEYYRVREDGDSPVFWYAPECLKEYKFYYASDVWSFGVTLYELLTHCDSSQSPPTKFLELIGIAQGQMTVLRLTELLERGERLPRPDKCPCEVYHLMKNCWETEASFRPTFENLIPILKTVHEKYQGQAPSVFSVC
T4 sequence (O60674 whole entry): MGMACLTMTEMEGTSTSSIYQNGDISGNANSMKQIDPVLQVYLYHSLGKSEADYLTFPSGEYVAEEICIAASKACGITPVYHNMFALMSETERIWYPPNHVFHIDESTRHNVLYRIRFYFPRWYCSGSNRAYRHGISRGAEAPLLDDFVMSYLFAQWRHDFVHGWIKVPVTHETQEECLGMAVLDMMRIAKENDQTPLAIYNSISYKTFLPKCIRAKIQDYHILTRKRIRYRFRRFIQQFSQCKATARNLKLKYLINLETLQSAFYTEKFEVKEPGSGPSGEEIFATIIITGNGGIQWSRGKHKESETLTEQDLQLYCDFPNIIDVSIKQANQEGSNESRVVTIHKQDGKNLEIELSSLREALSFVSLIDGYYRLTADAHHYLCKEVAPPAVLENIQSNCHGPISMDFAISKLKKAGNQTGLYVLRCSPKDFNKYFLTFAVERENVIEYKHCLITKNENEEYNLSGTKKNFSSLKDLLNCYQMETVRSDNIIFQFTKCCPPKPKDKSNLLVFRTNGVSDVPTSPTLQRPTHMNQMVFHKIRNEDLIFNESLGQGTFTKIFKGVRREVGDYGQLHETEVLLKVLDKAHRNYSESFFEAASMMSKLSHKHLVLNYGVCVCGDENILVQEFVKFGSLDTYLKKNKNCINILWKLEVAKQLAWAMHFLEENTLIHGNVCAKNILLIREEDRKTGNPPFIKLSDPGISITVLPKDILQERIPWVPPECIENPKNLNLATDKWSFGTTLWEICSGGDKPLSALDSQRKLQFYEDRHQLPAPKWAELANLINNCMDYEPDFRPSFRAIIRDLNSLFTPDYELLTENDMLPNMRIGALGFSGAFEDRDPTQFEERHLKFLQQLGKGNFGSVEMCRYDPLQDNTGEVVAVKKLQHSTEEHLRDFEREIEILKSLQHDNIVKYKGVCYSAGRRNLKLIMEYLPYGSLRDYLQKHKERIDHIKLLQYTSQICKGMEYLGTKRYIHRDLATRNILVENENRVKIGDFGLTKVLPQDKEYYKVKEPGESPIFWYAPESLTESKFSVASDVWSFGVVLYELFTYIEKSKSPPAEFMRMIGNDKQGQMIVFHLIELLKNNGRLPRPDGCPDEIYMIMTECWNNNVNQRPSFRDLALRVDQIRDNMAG
T2 sequence (P23458 whole entry): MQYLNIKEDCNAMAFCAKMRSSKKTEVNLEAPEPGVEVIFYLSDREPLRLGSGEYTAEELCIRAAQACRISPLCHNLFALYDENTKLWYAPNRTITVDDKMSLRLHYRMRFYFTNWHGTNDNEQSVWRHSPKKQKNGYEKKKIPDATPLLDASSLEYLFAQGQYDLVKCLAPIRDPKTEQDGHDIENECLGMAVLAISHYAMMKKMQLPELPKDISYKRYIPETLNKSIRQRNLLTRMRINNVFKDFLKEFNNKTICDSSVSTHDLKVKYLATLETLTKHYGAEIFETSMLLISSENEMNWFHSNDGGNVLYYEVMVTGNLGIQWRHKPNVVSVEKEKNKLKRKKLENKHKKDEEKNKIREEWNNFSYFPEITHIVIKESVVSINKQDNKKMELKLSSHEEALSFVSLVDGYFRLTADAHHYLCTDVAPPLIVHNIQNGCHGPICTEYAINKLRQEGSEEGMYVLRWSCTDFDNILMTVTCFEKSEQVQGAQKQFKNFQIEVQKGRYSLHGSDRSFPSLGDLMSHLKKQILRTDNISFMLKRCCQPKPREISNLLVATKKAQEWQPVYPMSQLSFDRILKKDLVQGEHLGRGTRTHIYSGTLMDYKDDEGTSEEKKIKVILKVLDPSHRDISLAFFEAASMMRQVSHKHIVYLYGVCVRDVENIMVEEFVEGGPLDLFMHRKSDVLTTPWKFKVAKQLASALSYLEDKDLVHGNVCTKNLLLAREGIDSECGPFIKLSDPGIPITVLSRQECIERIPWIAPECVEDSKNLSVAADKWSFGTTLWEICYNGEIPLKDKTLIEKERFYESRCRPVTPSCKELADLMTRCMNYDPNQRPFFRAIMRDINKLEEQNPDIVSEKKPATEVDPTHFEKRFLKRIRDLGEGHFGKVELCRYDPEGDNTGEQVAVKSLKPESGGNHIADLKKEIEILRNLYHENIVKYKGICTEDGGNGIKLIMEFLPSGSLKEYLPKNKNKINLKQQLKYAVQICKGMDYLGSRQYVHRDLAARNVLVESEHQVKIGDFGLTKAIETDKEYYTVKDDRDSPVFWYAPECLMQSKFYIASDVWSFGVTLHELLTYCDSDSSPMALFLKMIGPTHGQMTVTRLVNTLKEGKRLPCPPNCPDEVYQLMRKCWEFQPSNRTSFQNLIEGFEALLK

As a reminder, the IC50 is the midpoint of a concentration-inhibition curve. For `CCS(=O)(=O)N1CCC[C@@H]1CNc1nc(Nc2cnn(C)c2)ncc1Cl` [Example 51, (R)-5-chloro-N^4-((1-(ethylsulfonyl)pyrrolidin-2-yl)methyl)-N^2-(1-methyl-1H-pyrazol-4-yl)pyrimidine-2,4-diamine], the concentration for half-maximal inhibition (IC50) was under 100 nM in experiment [1], under 100 nM in experiment [2], under 100 nM in experiment [3] and 100 to 1000 nM in experiment [4]. For the same compound, in experiment [1], the “Selectivity ratio over JAK2, Tyk2” value is recorded as “Tyk2 = 14”.
Consider `Cn1cc(Nc2ncc(Cl)c(NC[C@H]3CCCN3C(=O)CO)n2)cn1` [Example 54, (R)-1-(2-((5-chloro-2-(1-methyl-1H-pyrazol-4-ylamino)pyrimidin-4-ylamino)methyl)pyrrolidin-1-yl)-2-hydroxyethanone], for which the concentration for half-maximal inhibition (IC50) is under 100 nM in experiment [1], under 100 nM in experiment [2], 100 to 1000 nM in experiment [3] and 100 to 1000 nM in experiment [4]. Moreover, the “Selectivity ratio over JAK2, Tyk2” value in experiment [1] is on record as “Tyk2 = 12”.
In the case of `CCNC(=O)N1CCC[C@@H]1CNc1nc(Nc2cnn(C)c2)ncc1Cl` [Example 88, (R)-2-(((5-chloro-2-((1-methyl-1H-pyrazol-4-yl)amino)pyrimidin-4-yl)amino)methyl)-N-ethylpyrrolidine-1-carboxamide], the IC50 in experiment [1] is under 100 nM; in experiment [2] it was 100 to 1000 nM; in experiment [3] it was 100 to 1000 nM; in experiment [4] it was 100 to 1000 nM. Besides, the “Selectivity ratio over JAK2, Tyk2” value in experiment [1] is listed as “Tyk2 = 35”.
In the case of `Cl.Cn1cc(Nc2ncc(F)c(NC[C@H]3CCCN3S(C)(=O)=O)n2)cn1` [Example 74, (R)-5-fluoro-N^2-(1-methyl-1H-pyrazol-4-yl)-N^4-((1-(methylsulfonyl)pyrrolidin-2-yl)methyl)pyrimidine-2,4-diamine Hydrochloride], the concentration for half-maximal inhibition (IC50) was under 100 nM in experiment [1], 100 to 1000 nM in experiment [2], 100 to 1000 nM in experiment [3] and 1000 to 10000 nM in experiment [4]. Besides, the “Selectivity ratio over JAK2, Tyk2” value in experiment [1] is given as “Tyk2 = 50”.
As for `Cc1cnc(Nc2cnn(CC(F)F)c2)nc1NC[C@H]1CCCN1CCC#N` [Example 117, (R)-3-(2-(((2-((1-(2,2-difluoroethyl)-1H-pyrazol-4-yl)amino)-5-methylpyrimidin-4-yl)amino)methyl)pyrrolidin-1-yl)propanenitrile], the IC50 in experiment [1] was under 100 nM; in experiment [2], under 100 nM; in experiment [3], under 100 nM; in experiment [4], 1000 to 10000 nM. Further, in experiment [1], the “Selectivity ratio over JAK2, Tyk2” value is listed as “Tyk2 = 140”.
For the compound `CC(C)NC(=O)Cn1cc(Nc2nccc(NC[C@H]3CCCN3CCS(C)(=O)=O)n2)cn1` [Example 84, (R)—N-isopropyl-2-(4-((4-(((1-(2-(methylsulfonyl)ethyl)pyrrolidin-2-yl)methyl)amino)pyrimidin-2-yl)amino)-1H-pyrazol-1-yl)acetamide], the IC50 in experiment [1] was under 100 nM; in experiment [2], 100 to 1000 nM; in experiment [3] it was 100 to 1000 nM; in experiment [4] it was over 10000 nM. Moreover, the “Selectivity ratio over JAK2, Tyk2” value in experiment [1] was “Tyk2 = 435”.
Turning to `Cn1cc(Nc2ncc(Cl)c(NCC3COCCN3CCS(C)(=O)=O)n2)cn1` (stereo not shown) [Example 87, 5-chloro-N^2-(1-methyl-1H-pyrazol-4-yl)-N^4-((4-(2-(methylsulfonyl)ethyl)morpholin-3-yl)methyl)pyrimidine-2,4-diamine], the IC50 is 100 to 1000 nM in experiment [1], 100 to 1000 nM in experiment [2], under 100 nM in experiment [3] and 1000 to 10000 nM in experiment [4]. Further, the “Selectivity ratio over JAK2, JAK3” value in experiment [3] (JAK3 over JAK2) is “JAK3 = 33”.
`Cn1cc(Nc2ncc(Cl)c(NC[C@@H]3C[C@H](F)CN3CCCS(C)(=O)=O)n2)cn1` [Example 132, 5-chloro-N^4-(((2S,4S)-4-fluoro-1-(3-(methylsulfonyl)propyl)pyrrolidin-2-yl)methyl)-N^2-(1-methyl-1H-pyrazol-4-yl)pyrimidine-2,4-diamine]: the IC50 in experiment [1] was under 100 nM; in experiment [2], under 100 nM; in experiment [3], 100 to 1000 nM; in experiment [4], 1000 to 10000 nM. Further, the “Selectivity ratio over JAK2, JAK1” value in experiment [2] (JAK1 over JAK2) was “JAK1 = 100”.

Values taken from US20150005281A1, “PYRIMIDINE-2,4-DIAMINE DERIVATIVES AS KINASE INHIBITORS” (Cellzome Limited, priority 2011, published 2015).
